We go through three compounds from patent US20230212146A1, “TRIARYLPYRIDINE COMPOUNDS AND USE THEREOF FOR TREATING CANCER” (INSTITUT NATIONAL DE LA SANTEET DE LA RECHERCHE …, priority 2020, published 2023).

SMILES strings stand for the structures.

A word on the IC50: it is the concentration at which inhibition is half-maximal.

The subject of test [1] is F21T oligonucleotide (human telomeric intramolecular quadruplex). The test is described as follows: FRET melting analysis, G-quadruplex stabilization. The conditions noted are these: compounds at 1-10 μM, 0.2 μM F21T, 10 mM KCl, 90 mM LiCl, pH 7.2. It counts as binding. The procedure:
Ordinate: melting temperature (Tm) in Celsius scale (° C.). Abscissa (from left to right): (i) Compounds 1a at 10 μM, 5 μM, 2.5 μM, 1 μM; (ii) Compounds 1b at 10 μM, 5 μM, 2.5 μM, 1 μM; (iii) Compounds 1c at 10 μM, 5 μM, 2.5 μM, 1 μM.
FRET melting experiments were conducted using the F21T oligonucleotide.

The next test relates to HeLa cells. The test is described as follows: MTT cell viability assay. It counts as cell-based, human. The note with it: 24 h treatment, mean of 4 independent experiments in quadruplicate. The procedure: HeLa cells were treated with 1 μM to 10 μM concentrations of compounds 20A (▾), 1a (grey ▴), 1b (●) and 1c (▪) for 24h. Cell viability was assessed by the MMT assay. Plotted are mean±SD of one representative experiment each performed in quadruplicate. IC50 is scored for each compound from 4 independent experiments performed in quadruplicate. Ordinate: Percentage of HeLa cell viability. Abscissa: Concentrations of compounds 20A, 1a, 1b and 1c.
MTT assay was used to monitor cell viability in HeLa cells subjected to different treatments. Briefly, cells were seeded in a 96-well plate (4×10^3 cells/well). After 24 h of treatment of cells with drug, MTT was added to each well to a final concentration of 0.5 mg/ml during 3 h at 37° C. The supernatant of cells was then removed, and 100 μl of DMSO was added per well. The absorbance in each well was measured at 570 nm and 630 nm using a Flexstation 3 microplate reader (Molecular Devices). 4 independent experiences were conducered, each performed in quadruplicate. To determine the IC50 of compounds 20A, 1a, 1b and 1c, a non-linear regression curve was fit using GraphPad Prism software.

The subject of test [2] is U2OS expressing Galectin3-mCherry cells. The test can be described thus: Lysosomal membrane permeabilization (LMP), quantification of Galectin 3 puncta. It counts as cell-based, human. The conditions noted are these: 24 h, 2 μM of 1a, 1 μM of 1b, 1 μM of 1c; for percentage of cells with Gal3 puncta: compound alone, without chloroquine; for percentage of Gal3 puncta positive cells: with 25 μM chloroquine. The procedure: The data are presented as the mean percentage of 15 values from 5 randomly chosen area in each of the three independent experiments. Ordinate: Percentage of cells with Galectin3 puncta.
Lysosomal membrane damage was assessed thanks to U2OS expressing Galectin3-mCherry cells. […] Cells were then washed with PBS, fixed with 4% (v/v) paraformaldehyde for 10 min at room temperature and then nucleic were counterstained for 15 min with Hoechst 33258. Image acquisition was made with a Leica DMI8 epifluorescence microscope, with a ×20 objective (NA 0.40) equipped with a digital CMOS camera (Hamamatsu photonics) and filter bloc for detection of phase contrast and blue (exc: 325-375 nm/em: 435-485 nm) and red (exc: 541-551 nm/em: 565-605 nm) fluorescence. Each image was collected with identical exposure times and scaled equally. Five images were acquired for each condition and then analyzed thanks to ImageJ software (Schneider et al., 2012, 9(7): 671-675) in order to count manually the number of cells, and automatically the number of Galectin3 punctae within each cell by using the “Find Maxima” tool.

In the case of `CSc1ccc(-c2cc(-c3ccc(-n4cc(CCCN5CCCC5)nn4)cc3)nc(-c3ccc(-n4cc(CCCN5CCCC5)nn4)cc3)c2)cc1` [Compound 1a], in test [1], the “stabilization of the F21T quadruplex (melting temperature Tm)” value was “stabilize an intramolecular quadruplex”. In the test with HeLa cells, the IC50 is 4.34 µM. Also, in test [2], the “percentage of cells with Gal3 puncta” value was determined as 26% and the “percentage of Gal3 puncta positive cells” value is 57%.
The corresponding values for `CSc1ccc(-c2cc(-c3ccc(-n4cc(CCN5CCN(C)CC5)nn4)cc3)nc(-c3ccc(-n4cc(CCN5CCN(C)CC5)nn4)cc3)c2)cc1` [Compound 1c] are “stabilize an intramolecular quadruplex”, 3.62 µM, 25% and 45%.
The corresponding values for `CSc1ccc(-c2cc(-c3ccc(-n4cc(CCCN5CCN(C)CC5)nn4)cc3)nc(-c3ccc(-n4cc(CCCN5CCN(C)CC5)nn4)cc3)c2)cc1` [Compound 1b] are “stabilize an intramolecular quadruplex”, 3.15 µM, 31% and 56%.
